Here are results for one compound from patent US20250120902A1, “POSTBIOTIC FERMENT COMPOSITION FOR ROOT, SCALP, AND HAIR CARE AND METHOD OF PREPARING AND USING THE” (THE ROOTIST INC., priority 2023, published 2025).

Several values for one entry are separate records, joined by “and”; a condition that tells them apart may be missing. Equal entries are not always repeated.

The test system of this experiment is 3D hair follicle organoids (HFDPC and HEKn cells). The experiment in a line: Hair follicle organoid growth test. It counts as cell-based, Human. The note with it: 1 μM. The text has this: Human Primary Dermal Papilla Cells (HFDPC) were collected from a person and provided by Kyungpook National University. Human Primary Epidermal Keratinocytes, neonatal foreskin (HEKn) cells were purchased from ATCC. […] The hair follicle organoid growth test aims to mass-produces hair follicle organoids by proliferating dermal papilla cells isolated from adult hair tissue in vitro, mixing them with keratinocytes, and then co-culturing them on a specially designed particle pattern substrate ([…], 150 spheroids/well). The experiment enables the assessment of the sample's impact on hair growth by monitoring changes in the diameter of keratinocyte pillars within the developed hair follicle organoid. In this test, to differentiate and validate the growth of HFDPC and HEKn cells, HFDPC cells were stained with Cell tracker CM-DilTM and HEKn cells were stained with Cell tracker Green CMFDATM. Stained HFDPC cells underwent filtration using a 15 μm strainer before being combined with DMEM medium to yield a density of 5×10^4 cells/well. Similarly, HEKn cells were adjusted to a density of 3×10^4 cells/well. […] 4) The test result measurements were initially analyzed using the Linear Mixed Model (LMM), which accounts for the random effects of each well. However, due to the lack of normality, the data were re-analyzed using the Generalized Linear Mixed Model (GLMM), which is suitable for non-normal data. […]

`Nc1cc(N2CCCCC2)nc(N)[n+]1[O-]` [Minoxidil, minoxidil]: the “Hair follicle organoid growth rate” value (day 3, compared to the untreated group (100%)) was 114.67% and 114.67 ± 5.69%. Under “day 3, estimated mean ± standard deviation”, the “hair follicle organoid diameter” value was 25.77 ± 1.28 μm.
